Experiments:
p-AXL = target: T1, p-AXL (Homo sapiens, UniProt P30530); test: Axl phosphorylation inhibition ELISA in HEK293T cells transfected with NanoLuc-tagged AXL; format: cell-based; conditions: 1 h compound incubation, media (OptiMEM)
T1 construct: expressed in transfected cells; host or cells: HEK293T
T1 sequence (P30530 26-894): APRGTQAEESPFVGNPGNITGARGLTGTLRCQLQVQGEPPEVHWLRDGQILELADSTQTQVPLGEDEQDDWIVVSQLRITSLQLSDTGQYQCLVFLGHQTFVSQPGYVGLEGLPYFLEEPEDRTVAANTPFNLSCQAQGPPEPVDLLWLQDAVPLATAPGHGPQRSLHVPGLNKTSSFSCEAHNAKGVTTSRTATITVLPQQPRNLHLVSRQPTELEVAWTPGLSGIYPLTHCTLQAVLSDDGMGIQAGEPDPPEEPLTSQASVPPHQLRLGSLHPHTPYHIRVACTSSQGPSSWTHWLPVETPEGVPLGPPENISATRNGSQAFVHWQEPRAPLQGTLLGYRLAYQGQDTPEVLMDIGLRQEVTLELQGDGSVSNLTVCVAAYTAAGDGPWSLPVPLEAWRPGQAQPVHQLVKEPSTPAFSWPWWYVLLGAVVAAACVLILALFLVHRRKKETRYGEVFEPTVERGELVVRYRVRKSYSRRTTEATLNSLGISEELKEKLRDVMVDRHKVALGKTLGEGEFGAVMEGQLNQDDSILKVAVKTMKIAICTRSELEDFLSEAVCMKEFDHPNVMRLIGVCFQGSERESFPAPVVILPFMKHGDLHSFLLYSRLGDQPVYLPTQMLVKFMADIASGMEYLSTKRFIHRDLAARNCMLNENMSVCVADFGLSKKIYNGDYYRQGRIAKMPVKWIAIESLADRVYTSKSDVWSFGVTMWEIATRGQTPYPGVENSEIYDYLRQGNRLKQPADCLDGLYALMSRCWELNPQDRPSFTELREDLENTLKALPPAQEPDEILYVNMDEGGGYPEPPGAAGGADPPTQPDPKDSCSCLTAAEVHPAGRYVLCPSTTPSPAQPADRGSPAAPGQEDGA
Experimental: [formula] Measurement of Axl Phosphorylation Inhibition
The dose-response assays were performed in S-Bio PrimeSurface® 3D culture: Ultra-low Attachment Plates: 384 well, U bottom (#MS-9384UZ) containing 400 nL of 22 serial 2-fold compound dilutions using Bravo and Echo. ELISA assay was performed on Pierce™ streptavidin coated high capacity 384-well white plates (Thermofisher Cat #15505). The plates were coated overnight at 4° C. with 50 μl/well of biotinlyated phospho-tyrosine mouse mAb (Cell Signaling Technology, 9417s).
HEK293T cells were grown in DMEM containing 10% FBS, 1% Pen/Strep, 1% G-Max. A day before the assay, cells were transiently transfected with 6.8 μg of NanoLuc-tagged AXL plasmid DNA and 8 μg of carrier DNA using FuGENE® HD Transfection Reagent (Promega) according to manufacturer's instructions. On the day of the assay, transfected cells were harvested and resuspended in OptiMEM. 70,000 cells/well were added to the compounds containing assay plates. After a gentle mix and a short spin, the plates were incubated at 37° C. After 1 h, the cells were lysed followed by a brief centrifugation and 30 min of shaking at 300 rpm. Meanwhile, the antibody coated plates were brought to room temperature and then were washed ten times in PBS with 0.05% Tween 20 (ELISA-wash buffer). 50 μl/well of cell lysate was transferred to the ELISA plates and shaken for 2 hours. After washing again with the ELISA wash buffer, the samples were diluted with 25 μl of PBS. The captured NanoLuc tagged p-AXL was detected using Nano-Glo® Luciferase Assay System (Promega) and manufacturer's instruction. The luminescence signal was measured using Envision plate reader. IC50 values were determined by fitting the data to a standard 4-parameter logistic equation.

Axl = target: T2, Axl (Homo sapiens, UniProt P30530); test: Biochemical potency, HTRF KinEASE-TK kinase assay; set-up: purchased Invitrogen; conditions: 5 nM AXL, 700 μM ATP
T2 sequence (P30530 26-894): T1 sequence (P30530 26-894)
Experimental: Measurement of Biochemical Compound Potency of Axl Inhibitors
Purified recombinant human AXL, TYRO3 and MER proteins were purchased from Invitrogen™. 10 nM AXL, 2 nM TYRO3 or MER were incubated with varying concentrations of compounds in 50 mM HEPES, pH 7.4, 10 mM MgCl2, 0.01% BSA, 1 mM DTT and 2% DMSO in a total volume of 20 μl in a 384-well microplate (Corning™ #3640) at RT for 1 h. The AXL, TYRO3 and MER enzymatic reaction was initiated by transferring 10 μl of enzyme and compound mixture into 10 μl of 1.6 μM TK Substrate-biotin (HTRF® KinEASE-TK kit, Cisbio) and 1400 μM ATP pre-incubated in 50 mM HEPES, pH 7.4, 10 mM MgCl2, 0.01% BSA, 1 mM DTT in a 384-well microplate (Corning™ #3640) at RT, giving the final reaction conditions: 5 nM AXL, 1 nM TYRO3 or MER, 800 nM TK Substrate-biotin and 700 μM ATP in 50 mM HEPES, pH 7.4, 10 mM MgCl2, 0.01% BSA, 1 mM DTT and 1% DMSO with varying concentrations of compounds. Following 2 h incubation at RT, the AXL, TYRO3 and MER enzymatic reaction was stopped by transfer of 10 μl of reaction into 10 μl of detection mix (400 nM Streptavidin-XL665, 200-fold dilution TK Antibody-Cryptate and detection buffer, HTRF® KinEASE-TK kit, Cisbio) in a white 384-well microplate (Perkin Elmer, OptiPlate 384). After 1 h incubation at RT, the plate was put into a plate reader (Evision) to read at 665/620 nm (acceptor/donor) for HTRF. The value of the DMSO blank (MIN inhibition=100% activity) was used as a negative control. The positive control was established by adding 5 μl of enzyme and DMSO mixture into 10 μl of detection mix followed by addition of 5 μl of TK Substrate-biotin and ATP mixture (MAX inhibition=0% activity). To calculate the percent activity, Equation 1 was used. Ratio665/620 is the value at a given compound concentration: […]

Structure (SMILES) | IC50 (p-AXL) [µM] | IC50 (Axl) [µM]
COc1ccnc(-c2ccc(-c3n[nH]c4ncc(-c5ccc6c(c5)CC[C@@H](N5C7COCC5C7)CC6)cc34)cc2)c1OC [Example 152, 6-[(7S)-2-{3-[4-(3,4-Dimethoxypyridin-2-yl)phenyl]-1H-pyrazolo[3,4-b]pyridin-5-yl}-6,7,8,9-tetrahydro-5H-benzo[7]annulen-7-yl]-3-oxa-6-azabicyclo[3.1.1]heptane] | < 0.1 | < 0.1
Cc1cccnc1-c1ccc(-c2c[nH]c3ncc(-c4ccc5c(c4)CC[C@@H](N4C6COCC4C6)CC5)cc23)c(F)c1 [Example 153, 6-[(7S)-2-{3-[2-Fluoro-4-(3-methylpyridin-2-yl)phenyl]-1H-pyrrolo[2,3-b]pyridin-5-yl}-6,7,8,9-tetrahydro-5H-benzo[7]annulen-7-yl]-3-oxa-6-azabicyclo[3.1.1]heptane] | < 0.1 | < 0.1
Cc1ccc(C#N)c(-c2ccc(-c3n[nH]c4ncc(-c5ccc6c(c5)CC[C@@H](N5C7COCC5C7)CC6)cc34)cc2)n1 [Example 70, 6-Methyl-2-(4-{5-[(7S)-7-{3-oxa-6-azabicyclo[3.1.1]heptan-6-yl}-6,7,8,9-tetrahydro-5H-benzo[7]annulen-2-yl]-1H-pyrazolo[3,4-b]pyridin-3-yl}phenyl)pyridine-3-carbonitrile] | < 0.1 | < 0.1
Cc1cccc(C#N)c1-c1ccc(-c2c[nH]c3ncc(-c4ccc5c(c4)CC[C@@H](N4C6COCC4C6)CC5)cc23)nc1 [Example 197, 3-Methyl-2-(6-{5-[(7S)-7-{3-oxa-6-azabicyclo[3.1.1]heptan-6-yl}-6,7,8,9-tetrahydro-5H-benzo[7]annulen-2-yl]-1H-pyrrolo[2,3-b]pyridin-3-yl}pyridin-3-yl)benzonitrile] | 0.1 to 1 | < 0.1
Cc1ccc(C#N)nc1-c1ccc(-c2c[nH]c3ncc(-c4ccc5c(c4)CC[C@@H](N4C6COCC4C6)CC5)cc23)cc1 [Example 75, 5-Methyl-6-(4-{5-[(7S)-7-{3-oxa-6-azabicyclo[3.1.1]heptan-6-yl}-6,7,8,9-tetrahydro-5H-benzo[7]annulen-2-yl]-1H-pyrrolo[2,3-b]pyridin-3-yl}phenyl)pyridine-2-carbonitrile] | < 0.1 | < 0.1
Cc1cccnc1-c1cnc(-c2c[nH]c3ncc(-c4ccc5c(c4)CC[C@@H](N4C6COCC4C6)CC5)cc23)cn1 [Example 184, 6-[(7S)-2-{3-[5-(3-Methylpyridin-2-yl)pyrazin-2-yl]-1H-pyrrolo[2,3-b]pyridin-5-yl}-6,7,8,9-tetrahydro-5H-benzo[7]annulen-7-yl]-3-oxa-6-azabicyclo[3.1.1]heptane] | < 0.1 | < 0.1
Cc1ccc(C)c(-c2ccc(-c3c[nH]c4ncc(-c5ccc6c(c5)CC[C@@H](N5CCCC5)CC6)cc34)cc2)n1 [Example 148, 3,6-Dimethyl-2-(4-{5-[(7S)-7-(pyrrolidin-1-yl)-6,7,8,9-tetrahydro-5H-benzo[7]annulen-2-yl]-1H-pyrrolo[2,3-b]pyridin-3-yl}phenyl)pyridine] | 0.1 to 1 | < 0.1
Cn1ncnc1-c1ccc(-c2n[nH]c3ncc(-c4ccc5c(c4)CC[C@@H](N4C[C@@H]6C[C@H]4CO6)CC5)cc23)cc1 [Example 135, (1S,4S)-5-[(7S)-2-{3-[4-(1-Methyl-1H-1,2,4-triazol-5-yl)phenyl]-1H-pyrazolo[3,4-b]pyridin-5-yl}-6,7,8,9-tetrahydro-5H-benzo[7]annulen-7-yl]-2-oxa-5-azabicyclo[2.2.1]heptane] | < 0.1 | < 0.1
Cc1cnc(-c2ccc(-c3n[nH]c4ncc(-c5ccc6c(c5)CC[C@@](C)(N5CCC[C@H]5C)CC6)cc34)nc2)c(C)n1 [Example 60, 3,5-Dimethyl-2-(6-{5-[(7S)-7-methyl-7-[(2R)-2-methylpyrrolidin-1-yl]-6,7,8,9-tetrahydro-5H-benzo[7]annulen-2-yl]-1H-pyrazolo[3,4-b]pyridin-3-yl}pyridin-3-yl)pyrazine] | 0.1 to 1 | < 0.1
Cc1cnc(C)c(-c2ccc(-c3c[nH]c4ncc(-c5ccc6c(c5)CC[C@@](C)(N5CCC[C@H]5C)CC6)cc34)nc2)n1 [Example 68, 2,5-Dimethyl-3-(6-{5-[(7S)-7-methyl-7-[(2R)-2-methylpyrrolidin-1-yl]-6,7,8,9-tetrahydro-5H-benzo[7]annulen-2-yl]-1H-pyrrolo[2,3-b]pyridin-3-yl}pyridin-3-yl)pyrazine] | < 0.1 | < 0.1
Cc1ccc(C)c(-c2ccc(-c3n[nH]c4ncc(-c5ccc6c(c5)CC[C@@H](N[C@H]5CCCOC5)CC6)cc34)cc2)n1 [Example 140, (3S)—N-[(7S)-2-{3-[4-(3,6-Dimethylpyridin-2-yl)phenyl]-1H-pyrazolo[3,4-b]pyridin-5-yl}-6,7,8,9-tetrahydro-5H-benzo[7]annulen-7-yl]oxan-3-amine] | < 0.1 | < 0.1
Cc1ncccc1-c1ccc(-c2c[nH]c3ncc(-c4ccc5c(c4)CC[C@@H](N4C6COCC4C6)CC5)cc23)cc1 [Example 74, 6-[(7S)-2-{3-[4-(2-Methylpyridin-3-yl)phenyl]-1H-pyrrolo[2,3-b]pyridin-5-yl}-6,7,8,9-tetrahydro-5H-benzo[7]annulen-7-yl]-3-oxa-6-azabicyclo[3.1.1]heptane] | 0.1 to 1 | < 0.1
Cc1ccc(C)c(-c2ccc(-c3c[nH]c4ncc(-c5ccc6c(c5)CC[C@@H](N5C7COC[C@H]5C7)CC6)cc34)c(F)c2)n1 [Example 144, (1R)-6-[(7S)-2-{3-[4-(3,6-Dimethylpyridin-2-yl)-2-fluorophenyl]-1H-pyrrolo[2,3-b]pyridin-5-yl}-6,7,8,9-tetrahydro-5H-benzo[7]annulen-7-yl]-3-oxa-6-azabicyclo[3.1.1]heptane] | < 0.1 | < 0.1
C[C@@H]1CCCN1[C@@]1(C)CCc2ccc(-c3cnc4[nH]nc(-c5ccc(-c6ncccc6C#N)cc5)c4c3)cc2CC1 [Example 66, 2-(4-{5-[(7S)-7-Methyl-7-[(2R)-2-methylpyrrolidin-1-yl]-6,7,8,9-tetrahydro-5H-benzo[7]annulen-2-yl]-1H-pyrazolo[3,4-b]pyridin-3-yl}phenyl)pyridine-3-carbonitrile] | < 0.1 | < 0.1
